This note sets out measurements from patent US20170137625A1, “ANTHRAQUINONE COMPOUND USED FOR COLOR FILTER OF LCD” (Dow Global Technologies LLC, priority 2014, published 2017).

One data set can be described thus: Solubility in PGMEA. As to conditions: for Solubility in PGMEA: solvent PGMEA (propylene glycol monomethyl ether acetate). It counts as physicochemical.
Data set [1] can be described thus: Thermal stability of films (chromaticity): ΔE before and after hard baking. It counts as physicochemical. Conditions: for ΔEab after baking at 230° C. for 1 h: dye in alkaline soluble acrylic resin film on glass, hard baked at 230° C. under air for 1 h, CIE Lab, D65/10. Here is the method:
1.15 g of alkaline soluble acrylic resin solution (MIPHOTO RPR4022, supplied from Miwan Commercial Co., Ltd., 40 wt % of solid content in methyl 3-methoxypropionate) was mixed with 1.73 g of PGMEA (60 wt %). 0.189 g of Dye 1 was mixed in the alkaline soluble resin/PGMEA solution and stirred for 2 hours at room temperature using a shaker. The solution was filtered through a 0.45 μm PTFE filter to remove large particles. Then the filtered solution was spin coated onto a clean glass substrate with 400 rpm spin speed for 18 seconds. The obtained film was first dried at 90° C. under air atmosphere for 30 minutes, and then hard baked at 230° C. under air atmosphere for 1 hour. The CIE values (xyY values and lab values) and the transmittance were measured before and after the hard bake.
(4) Thermal Stability of Films (Chromaticity):
The wet film after spin coating is dried in oven at 90° C. for 30 minutes and then soft baked at 150° C. for 15 minutes. The chromaticity coordinates (L, a, b) are recorded with UltraScan Pro (Hunterlab) colorimeter. D65/10 light source is used and results are based on CIE Lab coordinates. After that the film is hard baked at target temperature (230° C.) for 1 hour and the new chromaticity coordinates (L′, a′, b′) are recorded with the method above. The thermal stability of a film is indicated by the difference of chromaticity coordinate before and after hard baking represented by the following formula;
ΔE=√{square root over ((L−L′)^2+(a−a′)^2+(b−b′)^2)}

Where [2] appears, read: comparison in words, referring to Table 1.

Take `Cc1cc(C)c(Nc2ccc(Nc3c(C)cc(O)cc3C)c3c2C(=O)c2ccccc2C3=O)c(C)c1` [(1-((4-hydroxy-2,6-dimethylphenyl)amino)-4-(mesitylamino)-anthraquinone]: the “Solubility in PGMEA” value in “Solubility in PGMEA” is 3.0 wt %. In addition, the “ΔEab after baking at 230° C. for 1 h” value in data set [1] was 6.8.

`C=CCN(CC=C)C(=O)COc1cc(C)c(Nc2ccc(Nc3c(C)cc(C)cc3C)c3c2C(=O)c2ccccc2C3=O)c(C)c1` [Dye 1, N,N-diallyl-acetamide modified anthraquinone]: the “solubility in PEGMEA compared with the Comparative Examples” value in “Solubility in PGMEA” (setting [2]) is listed as “significant improvement”. Further, in “Solubility in PGMEA”, the “Solubility in PGMEA” value was found to be 6.2 wt %. The “thermal stability compared with the Comparative Examples” value in data set [1] (setting [2]) is “significant improvement”. In data set [1], the “ΔEab after baking at 230° C. for 1 h” value was determined as 2.1.

`CC(C)Nc1ccc(NC(C)C)c2c1C(=O)c1ccccc1C2=O` [Solvent Blue 36]: in the data set “Solubility in PGMEA”, the “Solubility in PGMEA” value was found to be 1.9 wt %. In data set [1], the “ΔEab after baking at 230° C. for 1 h” value was 33 (color almost.

On to `Cc1cc(C)c(Nc2ccc(Nc3c(C)cc(C)cc3C)c3c2C(=O)c2ccccc2C3=O)c(C)c1` [Solvent Blue 104, 1,4-bis(mesitylamino)anthraquinone], for which the “Solubility in PGMEA” value in “Solubility in PGMEA” is 0.6 wt %. Further, in data set [1], the “ΔEab after baking at 230° C. for 1 h” value came out at 7.9.
